According to US8415469B2, “Compounds and methods for kinase modulation, and indications therefor” (Plexxikon Inc., priority 2005, dated 2013):
Blank lines part the entries; values can stand above or below the molecule they belong to.

What was measured:
Assay type in all cases: biochemical
[1] = molecular target: T1, Kdr (Homo sapiens, UniProt P35968); assay: Z'-Lyte FRET kinase assay (Invitrogen), Kdr; conditions: read-out: IC50, activity toward kinase Kdr
T1 construct: purchased Invitrogen (assay run by Invitrogen)

[2] = molecular target: T2, Stk6 (Homo sapiens, UniProt O14965); assay: Z'-Lyte FRET kinase assay (Invitrogen), Stk6; conditions: read-out: IC50, activity toward kinase Stk6
T2 construct: purchased Invitrogen (Carlsbad, Calif.), screening service
T2 sequence (O14965 1-403): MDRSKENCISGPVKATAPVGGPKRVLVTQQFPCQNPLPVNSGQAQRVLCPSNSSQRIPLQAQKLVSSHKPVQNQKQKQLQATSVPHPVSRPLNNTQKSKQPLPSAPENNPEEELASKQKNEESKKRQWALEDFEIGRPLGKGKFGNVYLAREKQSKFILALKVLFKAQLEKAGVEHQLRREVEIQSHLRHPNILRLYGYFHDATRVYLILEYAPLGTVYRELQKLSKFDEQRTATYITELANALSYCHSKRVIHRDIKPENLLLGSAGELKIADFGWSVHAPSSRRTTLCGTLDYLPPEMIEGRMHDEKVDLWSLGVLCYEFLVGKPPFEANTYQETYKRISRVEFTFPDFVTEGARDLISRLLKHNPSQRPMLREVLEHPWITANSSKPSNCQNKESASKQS

[3] = molecular target: T3, PKC theta (Homo sapiens, UniProt Q04759); assay: Z'-Lyte FRET kinase assay (Invitrogen), PKC theta; conditions: read-out: IC50, activity toward kinase PKC theta
T3 construct: purchased Invitrogen (Carlsbad, Calif.), screening service
From the text: The effect of potential modulators of kinase activity can be measured in a variety of different assays known in the art. For example, direct radiometric, indirect FRET or AlphaScreen assays may be used to assess the level of phosphorylation of a substrate in the presence of test compounds in order to determine the inhibitory affect of the compound on the kinase. Invitrogen (Carlsbad, Calif.) uses a FRET based assay for Btk, EGFR, EphB2, Flt3, lrak4, Kdr, MAP2K1, MAPKAPK2, PDGFRB, PKC theta, Stk6 and Yes. For these assays, compounds of the invention were screened by Invitrogen using Z′-Lyte™ kinase assay.
Briefly, the Invitrogen kinase assay involves use of a specific peptide substrate optimized for each kinase, containing a fluorophore at each end that make up the FRET pair. The peptide sensitivity to proteolytic cleavage depends on phosphorylation of the peptide. Non-phosphorylated peptide is cleaved by a protease while peptide phosphorylated by the kinase is not cleaved. Cleavage of the peptide disrupts the FRET between the donor (coumarin) and acceptor (fluorescein) fluorophores, resulting in an increase in the ratio of donor emission to acceptor emission. The emission ratio of coumarin to fluorescein is used to assess the reaction progress. The extent of phosphorylation is determined from the emission ratio, which is low when the kinase is active (phosphorylated peptide is not cleaved, FRET pair connected) or higher for inhibited kinase (non-phosphorylated peptide is cleaved, FRET pair separated). Thus, the assay involves a kinase reaction in the presence of varying concentrations of a given compound, a development reaction with site specific protease, and detection of the fluorescent emission ratio of coumarin and fluorscein. […] Reaction conditions for each kinase are determined to provide optimal reaction times, incubation temperature, kinase and ATP concentrations. Test samples are made up in 1× kinase buffer (50 mM HEPES pH 7.5, 50 mM MgCl2, 5 mM EGTA, 0.05% BRIJ-35) and compound at desired concentration prepared in DMSO such that the final DMSO is 1%. […] Typically, assay plates are prepared to 10 μl final volume per sample, adding 2.5 μl of compound at 4× the desired concentration in 4% DMSO (serial dilution of compound provides concentration curve), 5 μl of the desired kinase mixed with Z′-LYTE™ peptide substrate (2× in 2× kinase buffer, final peptide at 2 μM), and 2.5 μl of 4×ATP solution. All kinase except for MAP2K1 were at 10 μM ATP in the kinase reaction, while MAP2K1 was at 100 μM. Samples are mixed and the kinase reaction is incubated 1 hour at room temperature, after which 5 μl of development solution is added and mixed. After incubation for another 1 hour at room temperature, 5 μl of stop reagent is added to each sample and mixed. The fluorescence signals are measured to determine the emission ratio.

[4] = molecular target: T4, Kit (Homo sapiens, UniProt P10721); assay: AlphaScreen kinase assay, Kit; conditions: read-out: IC50, activity toward kinase Kit
T4 construct: P1332.N6 BI PTP KIT M552-K948-X COD; His6 (N); made in house; host or cells: E. coli (PTP1B co-expressed)

[5] = molecular target: T5, Zap70 (Homo sapiens, UniProt P43403); assay: AlphaScreen kinase assay, Zap70; conditions: read-out: IC50, activity toward kinase Zap70
T5 construct: P1868.pFastBac1 ZAP70 D327-G606 HIS, WT; His7 (HHHHHHH) (C); made in house
T5 sequence (P43403 with tags, fused parts or gaps): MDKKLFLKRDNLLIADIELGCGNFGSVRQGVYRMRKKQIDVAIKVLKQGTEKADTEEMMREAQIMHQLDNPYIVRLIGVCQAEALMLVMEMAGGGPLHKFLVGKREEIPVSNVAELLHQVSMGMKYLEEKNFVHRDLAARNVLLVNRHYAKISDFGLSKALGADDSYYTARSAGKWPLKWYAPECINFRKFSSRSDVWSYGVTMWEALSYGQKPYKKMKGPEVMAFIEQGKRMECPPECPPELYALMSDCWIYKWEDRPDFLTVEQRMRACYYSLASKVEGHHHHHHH
Method in brief: (§1)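 Biotinylated peptide substrate is phosphorylated by kinase; anti-phosphopeptide antibody on acceptor beads and streptavidin donor beads bring emission when substrate is phosphorylated. Inhibition lowers acceptor signal. Compounds from 20 mM DMSO stock tested as 8-point 1:3 serial dilutions.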

[6] = molecular target: T6, Jnk2 (Homo sapiens, UniProt P45984); assay: AlphaScreen kinase assay, Jnk2; conditions: read-out: IC50, activity toward kinase Jnk2
T6 construct: purchased Roche Protein Expression Group (Indianapolis, IN)
Method in brief: as §1

[7] = molecular target: T7, Pyk2 (Homo sapiens, UniProt Q14289); assay: AlphaScreen kinase assay, Pyk2; conditions: read-out: IC50, activity toward kinase Pyk2
T7 construct: purchased Upstate Biotechnology

[8] = molecular target: T8, Ret (Homo sapiens, UniProt P07949); assay: AlphaScreen kinase assay, Ret; conditions: read-out: IC50, activity toward kinase Ret
T8 construct: P1378.pET-SF BI-PTP RET H661-R1012 HIS; made in house
T8 sequence (P07949 with tags, fused parts or gaps): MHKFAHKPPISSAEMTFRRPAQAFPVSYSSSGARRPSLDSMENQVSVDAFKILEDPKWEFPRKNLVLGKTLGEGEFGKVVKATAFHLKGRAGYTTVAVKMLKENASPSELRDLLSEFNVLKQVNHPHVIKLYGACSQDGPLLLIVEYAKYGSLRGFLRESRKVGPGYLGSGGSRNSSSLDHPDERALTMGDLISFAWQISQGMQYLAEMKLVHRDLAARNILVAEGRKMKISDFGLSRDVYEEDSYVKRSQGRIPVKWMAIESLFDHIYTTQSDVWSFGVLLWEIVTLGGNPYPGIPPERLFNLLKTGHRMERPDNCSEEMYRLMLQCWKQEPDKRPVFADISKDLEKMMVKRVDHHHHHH

[9] = molecular target: MAP4K4 (Homo sapiens, UniProt O95819); assay: AlphaScreen kinase assay, MAP4K4; conditions: read-out: IC50, activity toward kinase MAP4K4
[10] = molecular target: T9, Fms (Homo sapiens, UniProt P07333); assay: AlphaScreen kinase assay, Fms; conditions: read-out: IC50, activity toward kinase Fms
T9 construct: purchased Upstate Biotechnology

[11] = molecular target: T10, Jnk3 (Homo sapiens, UniProt P53779); assay: AlphaScreen kinase assay, Jnk3; conditions: read-out: IC50, activity toward kinase Jnk3
T10 construct: purchased Upstate Biotechnology

[12] = molecular target: T11, FGFR1 (Homo sapiens, UniProt P11362, C488A/C584S); assay: AlphaScreen kinase assay, FGFR1; conditions: read-out: IC50, activity toward kinase FGFR
T11 construct: P1351.pET N6 BI-PTP FGFR A458-E765-X C488A, C584S; made in house; host or cells: E. coli (PTP1B co-expressed)

[13] = molecular target: T12, c-Raf-1 (Homo sapiens, UniProt P04049); assay: AlphaScreen kinase assay, c-Raf-1; conditions: read-out: IC50, activity toward kinase c-Raf-1
T12 construct: purchased Upstate Biotechnology

[14] = molecular target: T13, Yes (Homo sapiens, UniProt P07947); assay: Z'-Lyte FRET kinase assay (Invitrogen), Yes; conditions: read-out: IC50, activity toward kinase Yes
T13 construct: purchased Invitrogen (Carlsbad, Calif.), screening service
Method in brief: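 Read-out is the coumarin-to-fluorescein emission ratio, which rises when unphosphorylated peptide is cleaved by the development protease. Reactions contain serially diluted compound, 2 μM peptide and 10 μM ATP and run for 1 h at room temperature before 1 h development.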

[15] = molecular target: T14, Flt1 (Homo sapiens, UniProt P17948); assay: AlphaScreen kinase assay, Flt1; conditions: read-out: IC50, activity toward kinase Flt1
T14 construct: P1826.pETN6 BI-PTP FLT1 M799-D1165-X WT; His6 (N); made in house; host or cells: E. coli (PTP1B co-expressed)
T14 sequence (P17948 with tags, fused parts or gaps): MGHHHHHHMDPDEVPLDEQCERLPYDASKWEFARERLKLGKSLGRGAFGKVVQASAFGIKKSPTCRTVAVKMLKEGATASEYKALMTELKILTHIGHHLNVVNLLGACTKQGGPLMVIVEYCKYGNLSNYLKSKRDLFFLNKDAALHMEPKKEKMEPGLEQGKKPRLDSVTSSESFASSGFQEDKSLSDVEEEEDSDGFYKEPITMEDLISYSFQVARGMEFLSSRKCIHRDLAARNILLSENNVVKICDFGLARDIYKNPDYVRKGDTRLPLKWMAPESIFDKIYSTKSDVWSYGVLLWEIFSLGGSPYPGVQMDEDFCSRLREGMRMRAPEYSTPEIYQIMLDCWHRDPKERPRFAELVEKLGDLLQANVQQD

[16] = molecular target: T15, Btk (Homo sapiens, UniProt Q06187); assay: Z'-Lyte FRET kinase assay (Invitrogen), Btk; conditions: read-out: IC50, activity toward kinase Btk
T15 construct: purchased Invitrogen (assay run by Invitrogen)

[17] = molecular target: Akt3 (Homo sapiens, UniProt Q9Y243); assay: AlphaScreen kinase assay, Akt3; conditions: read-out: IC50, activity toward kinase Akt3
Method in brief: as §1

[18] = molecular target: T16, Jnk1 (Homo sapiens, UniProt P45983); assay: AlphaScreen kinase assay, Jnk1; conditions: read-out: IC50, activity toward kinase Jnk1
T16 construct: purchased Upstate Biotechnology

[19] = molecular target: T17, B-Raf V600E (Homo sapiens, UniProt P15056, V600E); assay: AlphaScreen kinase assay, B-Raf V600E; conditions: read-out: IC50, activity toward kinase B-Raf V600E
T17 construct: P4254. pFastBacBD-CDC37 BRAF D437-K722-X, V600E; His6 with pFastBac HT leader (TEV site) (N); made in house; host or cells: Sf9 (baculovirus; chaperone CDC37 co-expressed)

[20] = molecular target: T18, Src (Homo sapiens, UniProt P12931); assay: AlphaScreen kinase assay, Src; conditions: read-out: IC50, activity toward kinase Src
T18 construct: P1144. pET-N6 BI-PTP SRC V86-L536-X; made in house

[21] = molecular target: T19, B-Raf (Homo sapiens, UniProt P15056); assay: AlphaScreen kinase assay, B-Raf; conditions: read-out: IC50, activity toward kinase B-Raf
T19 construct: purchased Upstate Biotechnology

[22] = molecular target: T20, Fak (Homo sapiens, UniProt Q05397); assay: AlphaScreen kinase assay, Fak; conditions: read-out: IC50, activity toward kinase Fak
T20 construct: P1358.pFastBacHtb FAK S411-Q686-X; His6 with pFastBacHTb leader (TEV site) (N); made in house; host or cells: Sf9 (baculovirus)

T1 sequence (P35968 20-1356): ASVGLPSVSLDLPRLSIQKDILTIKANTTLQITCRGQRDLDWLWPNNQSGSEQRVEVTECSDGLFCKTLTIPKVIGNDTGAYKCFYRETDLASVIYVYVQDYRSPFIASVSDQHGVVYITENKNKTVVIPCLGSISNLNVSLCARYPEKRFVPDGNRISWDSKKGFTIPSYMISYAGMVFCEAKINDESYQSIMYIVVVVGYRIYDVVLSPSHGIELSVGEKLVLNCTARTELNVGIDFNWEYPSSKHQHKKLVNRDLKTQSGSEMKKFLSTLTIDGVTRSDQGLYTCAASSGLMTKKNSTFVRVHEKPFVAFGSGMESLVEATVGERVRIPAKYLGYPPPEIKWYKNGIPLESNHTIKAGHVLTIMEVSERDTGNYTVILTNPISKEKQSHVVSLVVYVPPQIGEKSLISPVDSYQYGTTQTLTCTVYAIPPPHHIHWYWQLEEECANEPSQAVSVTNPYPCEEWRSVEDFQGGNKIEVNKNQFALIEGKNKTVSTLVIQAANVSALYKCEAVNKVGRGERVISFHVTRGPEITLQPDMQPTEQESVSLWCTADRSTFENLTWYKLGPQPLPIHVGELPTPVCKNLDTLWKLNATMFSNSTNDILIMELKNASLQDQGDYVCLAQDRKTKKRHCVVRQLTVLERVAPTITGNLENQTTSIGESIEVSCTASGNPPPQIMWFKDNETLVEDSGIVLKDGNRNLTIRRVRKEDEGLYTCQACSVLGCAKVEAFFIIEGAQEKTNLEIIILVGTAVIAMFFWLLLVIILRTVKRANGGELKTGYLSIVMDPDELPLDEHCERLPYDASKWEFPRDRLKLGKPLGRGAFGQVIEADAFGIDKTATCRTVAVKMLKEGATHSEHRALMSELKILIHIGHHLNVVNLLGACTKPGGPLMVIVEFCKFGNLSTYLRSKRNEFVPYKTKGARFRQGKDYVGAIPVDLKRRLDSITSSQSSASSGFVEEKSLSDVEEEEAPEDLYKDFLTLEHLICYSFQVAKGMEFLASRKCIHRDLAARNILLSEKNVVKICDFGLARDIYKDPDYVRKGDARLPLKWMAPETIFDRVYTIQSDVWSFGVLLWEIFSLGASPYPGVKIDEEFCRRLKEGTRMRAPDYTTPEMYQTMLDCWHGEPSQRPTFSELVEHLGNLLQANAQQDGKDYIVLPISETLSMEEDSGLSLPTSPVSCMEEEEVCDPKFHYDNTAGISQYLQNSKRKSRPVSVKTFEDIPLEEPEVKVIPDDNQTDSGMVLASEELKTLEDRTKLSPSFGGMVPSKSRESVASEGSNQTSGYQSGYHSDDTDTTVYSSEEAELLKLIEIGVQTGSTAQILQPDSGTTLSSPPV
T4 sequence (P10721 with tags, fused parts or gaps): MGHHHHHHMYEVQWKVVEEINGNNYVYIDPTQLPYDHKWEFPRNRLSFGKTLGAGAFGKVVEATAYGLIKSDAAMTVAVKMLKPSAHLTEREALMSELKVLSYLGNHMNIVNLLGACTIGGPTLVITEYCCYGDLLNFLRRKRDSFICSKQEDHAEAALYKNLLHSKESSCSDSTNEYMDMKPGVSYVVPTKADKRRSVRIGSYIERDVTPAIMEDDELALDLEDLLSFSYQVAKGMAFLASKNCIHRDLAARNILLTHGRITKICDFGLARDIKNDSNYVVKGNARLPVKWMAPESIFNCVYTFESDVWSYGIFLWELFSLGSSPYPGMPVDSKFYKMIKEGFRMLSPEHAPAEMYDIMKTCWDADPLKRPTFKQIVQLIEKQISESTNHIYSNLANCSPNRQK
T3 sequence (Q04759 whole entry): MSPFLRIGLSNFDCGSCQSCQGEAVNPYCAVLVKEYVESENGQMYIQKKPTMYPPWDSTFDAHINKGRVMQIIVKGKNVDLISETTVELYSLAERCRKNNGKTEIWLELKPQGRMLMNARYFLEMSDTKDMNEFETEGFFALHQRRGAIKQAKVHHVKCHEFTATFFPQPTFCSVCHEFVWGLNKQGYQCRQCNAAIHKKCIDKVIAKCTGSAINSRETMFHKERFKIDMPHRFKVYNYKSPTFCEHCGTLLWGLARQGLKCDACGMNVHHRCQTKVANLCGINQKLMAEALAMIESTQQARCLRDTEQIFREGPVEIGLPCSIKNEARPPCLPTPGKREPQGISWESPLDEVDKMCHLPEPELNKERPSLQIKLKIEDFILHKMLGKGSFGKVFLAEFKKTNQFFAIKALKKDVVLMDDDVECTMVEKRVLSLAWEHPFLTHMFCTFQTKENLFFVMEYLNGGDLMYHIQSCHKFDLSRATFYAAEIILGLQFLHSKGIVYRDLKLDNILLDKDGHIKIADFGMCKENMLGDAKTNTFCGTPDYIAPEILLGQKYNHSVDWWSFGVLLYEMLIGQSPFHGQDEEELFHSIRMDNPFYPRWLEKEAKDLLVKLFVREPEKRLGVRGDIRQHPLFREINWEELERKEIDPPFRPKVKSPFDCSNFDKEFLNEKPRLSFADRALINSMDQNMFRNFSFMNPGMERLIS
T7 sequence (Q14289 whole entry): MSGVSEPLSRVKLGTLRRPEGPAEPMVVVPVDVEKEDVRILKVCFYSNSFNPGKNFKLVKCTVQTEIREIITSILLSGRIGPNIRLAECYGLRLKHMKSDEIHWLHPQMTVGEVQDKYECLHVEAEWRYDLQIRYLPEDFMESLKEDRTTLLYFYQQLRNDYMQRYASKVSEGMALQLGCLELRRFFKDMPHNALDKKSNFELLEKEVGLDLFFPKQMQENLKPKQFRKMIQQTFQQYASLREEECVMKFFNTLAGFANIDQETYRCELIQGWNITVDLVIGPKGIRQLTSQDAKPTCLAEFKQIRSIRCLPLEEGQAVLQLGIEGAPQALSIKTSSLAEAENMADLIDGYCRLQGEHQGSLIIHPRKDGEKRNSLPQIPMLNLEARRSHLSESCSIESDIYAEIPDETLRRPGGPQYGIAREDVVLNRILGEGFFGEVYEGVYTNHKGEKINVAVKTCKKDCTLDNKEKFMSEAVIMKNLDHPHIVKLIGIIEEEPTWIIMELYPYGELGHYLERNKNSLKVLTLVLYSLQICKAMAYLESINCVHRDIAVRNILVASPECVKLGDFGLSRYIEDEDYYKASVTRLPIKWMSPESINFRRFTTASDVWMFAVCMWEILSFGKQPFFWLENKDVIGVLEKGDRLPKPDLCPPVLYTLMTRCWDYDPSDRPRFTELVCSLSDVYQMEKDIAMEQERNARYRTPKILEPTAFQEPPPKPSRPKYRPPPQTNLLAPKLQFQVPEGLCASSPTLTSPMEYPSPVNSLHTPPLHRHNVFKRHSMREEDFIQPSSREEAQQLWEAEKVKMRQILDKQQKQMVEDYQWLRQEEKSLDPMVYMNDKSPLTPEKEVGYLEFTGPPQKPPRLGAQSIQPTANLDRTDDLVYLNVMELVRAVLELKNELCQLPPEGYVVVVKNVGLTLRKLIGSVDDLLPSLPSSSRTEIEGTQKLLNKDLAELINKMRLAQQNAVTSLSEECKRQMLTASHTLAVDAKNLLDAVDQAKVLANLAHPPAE
T12 sequence (P04049 whole entry): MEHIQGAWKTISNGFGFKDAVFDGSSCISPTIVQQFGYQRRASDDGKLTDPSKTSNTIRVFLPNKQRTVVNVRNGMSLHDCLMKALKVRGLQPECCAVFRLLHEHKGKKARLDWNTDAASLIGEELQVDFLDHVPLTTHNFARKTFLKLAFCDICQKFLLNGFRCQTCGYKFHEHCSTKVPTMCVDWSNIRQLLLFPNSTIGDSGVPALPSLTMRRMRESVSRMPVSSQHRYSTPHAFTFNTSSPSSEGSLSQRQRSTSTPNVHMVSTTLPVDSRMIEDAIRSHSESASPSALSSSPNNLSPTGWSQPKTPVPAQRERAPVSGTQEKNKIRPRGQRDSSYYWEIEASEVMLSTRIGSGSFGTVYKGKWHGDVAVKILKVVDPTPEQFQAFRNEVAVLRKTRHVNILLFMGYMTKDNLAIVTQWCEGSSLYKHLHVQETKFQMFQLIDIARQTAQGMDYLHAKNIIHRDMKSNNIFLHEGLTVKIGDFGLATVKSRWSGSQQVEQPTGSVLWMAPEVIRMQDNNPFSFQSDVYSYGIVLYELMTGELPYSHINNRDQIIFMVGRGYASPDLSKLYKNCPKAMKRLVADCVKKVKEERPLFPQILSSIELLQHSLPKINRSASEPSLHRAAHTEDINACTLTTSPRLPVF
T16 sequence (P45983 whole entry): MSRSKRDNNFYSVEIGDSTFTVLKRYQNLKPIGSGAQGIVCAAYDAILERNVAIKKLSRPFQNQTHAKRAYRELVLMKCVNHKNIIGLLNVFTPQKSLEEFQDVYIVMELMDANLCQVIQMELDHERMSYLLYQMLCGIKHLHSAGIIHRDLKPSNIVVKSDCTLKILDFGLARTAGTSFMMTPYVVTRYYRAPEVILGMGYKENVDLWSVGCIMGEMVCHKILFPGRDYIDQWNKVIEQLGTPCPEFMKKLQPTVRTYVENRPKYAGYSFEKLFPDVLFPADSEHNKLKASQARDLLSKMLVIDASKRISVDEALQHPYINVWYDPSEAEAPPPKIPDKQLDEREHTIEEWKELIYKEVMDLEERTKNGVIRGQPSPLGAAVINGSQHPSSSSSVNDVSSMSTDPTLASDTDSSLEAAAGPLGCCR
Chain of Akt3 (Q9Y243 whole entry): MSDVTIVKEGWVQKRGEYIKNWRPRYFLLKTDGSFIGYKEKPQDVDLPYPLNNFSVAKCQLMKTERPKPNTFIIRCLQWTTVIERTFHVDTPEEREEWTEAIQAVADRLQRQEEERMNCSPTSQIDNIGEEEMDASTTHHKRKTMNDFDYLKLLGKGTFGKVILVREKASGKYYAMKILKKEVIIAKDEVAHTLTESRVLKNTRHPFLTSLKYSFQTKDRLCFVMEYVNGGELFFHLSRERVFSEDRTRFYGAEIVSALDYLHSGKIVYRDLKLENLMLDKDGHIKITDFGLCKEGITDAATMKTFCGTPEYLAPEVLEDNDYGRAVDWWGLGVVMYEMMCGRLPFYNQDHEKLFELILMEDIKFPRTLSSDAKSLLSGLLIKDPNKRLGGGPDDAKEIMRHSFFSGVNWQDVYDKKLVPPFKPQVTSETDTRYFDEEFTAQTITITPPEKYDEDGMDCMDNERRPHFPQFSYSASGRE

- IC50 [1]: ≤ 10 µM
- IC50 [2]: ≤ 10 µM
- IC50 [3]: ≤ 10 µM
- IC50 [4]: ≤ 10 µM
- IC50 [5]: ≤ 10 µM
SMILES: CC(=O)Nc1cccc(-c2ccnc3[nH]ccc23)c1 [Compound P-0030]

- IC50 [1]: ≤ 10 µM
- IC50 [6]: ≤ 10 µM
- IC50 [2]: ≤ 10 µM
- IC50 [7]: ≤ 10 µM
- IC50 [8]: ≤ 10 µM
- IC50 [3]: ≤ 10 µM
- IC50 [4]: ≤ 10 µM
- IC50 [9]: ≤ 10 µM
SMILES: O=C1Nc2ccccc2/C1=C/c1c[nH]c2ncccc12 [Compound P-0069]

- IC50 [1]: ≤ 10 µM
- IC50 [10]: ≤ 10 µM
- IC50 [11]: ≤ 10 µM
- IC50 [12]: ≤ 10 µM
- IC50 [7]: ≤ 10 µM
- IC50 [13]: ≤ 10 µM
- IC50 [3]: ≤ 10 µM
- IC50 [14]: ≤ 10 µM
- IC50 [15]: ≤ 10 µM
- IC50 [16]: ≤ 10 µM
- IC50 [17]: ≤ 10 µM
- IC50 [4]: ≤ 10 µM
- IC50 [18]: ≤ 10 µM
- IC50 [19]: ≤ 10 µM
- IC50 [20]: ≤ 10 µM
- IC50 [21]: ≤ 10 µM
- IC50 [22]: ≤ 10 µM
SMILES: O=C(c1ccc(O)cc1Cl)c1c[nH]c2ncc(-c3cccs3)cc12 [Compound P-0112]
